# Source: patent publication US20180273534A1, “PYRAZOLOPYRIDINE SULFONAMIDES AS NEMATICIDES” (BAYER CROPSCIENCE AKTIENGESELLSCHAFT, priority 2014, published 2018)
# What was measured:
# Format in all cases: in vivo
# [1] = tested on: Tetranychus urticae; experiment: Tetranychus urticae spray test OP-resistant; conditions: application rate 500 g/ha, after 6 days, sprayed French bean leaf disks, 100% = all spider mites killed
# Procedure: Tetranvechus urticae—spray test OP-resistant
# (§1) Solvent: 78.0 parts by weight acetone • 1.5 parts by weight dimethylformamide
# (§2) Emulsifier: alkylarylpolyglycol ether
# (§3) To produce a suitable preparation of active compound, 1 part by weight of active compound is mixed with the stated amount of solvents and is diluted with water, containing an emulsifier concentration of 1000 ppm, to the desired concentration. Further test concentrations are prepared by dilution with emulsifier containing water.
# French bean (Phaseolus vulgaris) leaf disks which are heavily infested with all stages of the two spotted spidermite (Tetranychus urticae), are sprayed with a preparation of the active ingredient of the desired concentration.
# After 6 days mortality in % is determined. 100% means all spider mites have been killed and 0% means none of the spider mites have been killed.
# [2] = tested on: Myzus persicae; experiment: Myzus persicae spray test; conditions: application rate 500 g/ha; after 6 days; sprayed Chinese cabbage leaf disks; 100% = all aphids killed
# Procedure: Myzus Persicae—Spray Test
# as §1, §2, §3
# Chinese cabbage (Brassica pekinensis) leaf disks infected with all instars of the green peach aphid (Myzus persicae), are sprayed with a preparation of the active ingredient of the desired concentration.
# After 6 days mortality in % is determined. 100% means all aphids have been killed and 0% means none of the aphids have been killed.
# [3] = tested on: Meloidogyne incognita; experiment: Meloidogyne incognita test (sand, salad seedlings, gall formation); conditions: application rate 20 ppm, after 14 days, 100% = no galls, 0% = galls equal to untreated control
# Procedure: Meloidogyne Incognita—Test
# Solvent: 125.0 parts by weight of acetone
# To produce a suitable preparation of active compound, 1 part by weight of active compound is mixed with the stated amount of solvent, and the concentrate is diluted with water to the desired concentration.
# Vessels are filled with sand, a solution of the active ingredient, a suspension containing eggs and larvae of the southern root-knot nematode (Meloidogyne incognita) and salad seeds. The salad seeds germinate and the seedlings grow. Galls develop in the roots.
# After 14 days the nematicidal activity is determined on the basis of the percentage of gall formation. 100% means no galls were found and 0% means the number of galls found on the roots of the treated plants was equal to that in untreated control plants.
# [4] = tested on: Meloidogyne incognita; experiment: Meloidogyne incognita test (soil drench, loamy sand, gall formation); conditions: application rate 8 ppm, after 21 days, salad seedlings, 100% = no galls
# Procedure: Meloidogyne incognita—Test
# Solvent: 7 parts by weight of dimethylformamide
# Emulsifier: 2.5 parts by weight of alkylarylpolyglycolether
# To produce a suitable preparation of active compound, 1 part by weight of active compound is mixed with the stated amount of solvent and emulsifier and is diluted with water to the desired concentration. In the calculation of the concentration the soil volume has to be included. […] Further test concentrations are prepared by dilution with water.
# The compound solution is poured into pots filled with soil (loamy sand). A suspension containing eggs and larvae of the southern root-knot nematode (Meloidogyne incognita) is added, salad seeds are spread on the soil surface and covered with quartz sand. The salad seeds germinate and the seedlings grow. Galls develop on the roots.
# After 21 days the nematicidal activity is determined on the basis of the percentage of gall formation. 100% means no galls were found; 0% means the number of galls found on the roots of the treated plants was equal to that in untreated control plants.
SMILES,mortality [1] [%],mortality [2] [%],nematicidal activity on the basis of the percentage of gall formation [3] [%],nematicidal activity on the basis of the percentage of gall formation [4] [%]
CS(=O)(=O)NC(=O)c1cc2c(Cl)cc(C(F)(F)F)cn2n1 [Example I-15],85,100,90,
O=C(NS(=O)(=O)c1ccccc1Cl)c1cc2cc(Cl)cc(Cl)n2n1 [Example I-46],,90,90,
O=C(NS(=O)(=O)c1cc(Cl)ccc1Cl)c1cc2cc(Cl)cc(Cl)n2n1 [Example I-47],,,,80
